Patent publication US20240132458A1, “NLRP3 INFLAMMASOME SMALL-MOLECULE INHIBITOR FOR TREATMENT OF ALZHEIMER'S DISEASE” (AJOU UNIVERSITY INDUSTRY-ACADEMIC COOPERATION FOUNDATION, priority 2021, published 2024)
“Also recorded” adds a separate entry of the source.

Experiments:
NLRP3 [1] = details: approximate inhibitory concentration, literature; cited from earlier work
NLRP3, NLRC4 = details: approximate inhibitory concentration, literature; cited from earlier work
[2] = system: AD model mice (Aβ1-42 injected); assay: Y-maze test in AD model (spatial working memory); format: in vivo, C57BL/6 mice; details: 3 days/week, vs vehicle-treated and untreated mice
Protocol: (§1) 6-week-old male C57BL/6 mice (19 to 22 g) were used, and 5 mice per cage were bred in a feedlot. To create an AD model, experimental animals were administered isoflurane by inhalation, and then injected with Aβ1-42 (5 μL) using a Hamilton microsyringe with a 26-gauge needle. The AD model mice were trained for 20 minutes/mouse for 2 days before the experimental procedure, and then subjected to Y-maze tests and novel object recognition tests (for cognitive evaluation). Behavioral evaluation was performed 7 days after Aβ1-42 injection. The animals were subdivided into AD, NIC7-treated, vehicle (DMSO)-treated, donepezil-treated (positive control) and normal (no-disease) groups. Cognitive evaluation was performed on days 7, 14, 21 and 28 after injection.
The alteration in spatial cognitive behavior was assessed using a Y-maze apparatus with three horizontal identical arms (35 cm long×15 cm high×5 cm wide) symmetrically arranged at 120° to each other. The evaluation was performed in the Y-maze test 7 days after Aβ injection. After introduction into the Y-maze, each animal was allowed to move freely for 2 minutes and then measured for 5 minutes. The test subjects tended to enter an arm different from the arm they had previously visited. The number of arm entries and triads was recorded to calculate the percentage of alternation. […]

Body weight in AD model = format: in vivo, C57BL/6 mice; details: NIC7 100 nmol/g intraperitoneally; compared to the untreated mice
Protocol: as §1

Microsomal stability = format: in vitro ADME, human; details: for Microsomal stability (% at 30 min): Human liver microsomes 0.5 mg/mL, 1 μM compound, 37° C.
Protocol: Stock solutions of NIC7 and NIC7w were prepared at a concentration of 10 mM in DMSO, and were diluted to a concentration of 100 μM with 100% methanol as a working solution. These NIC7 and NIC7w solutions were diluted to a concentration of 1 μM with potassium phosphate buffer (pH 7.4), and then each solution was incubated with 0.5 mg/mL liver microsomes (human) at 37° C. for 5 minutes. The reaction was initiated by adding a NADPH-generating system (3.3 mM glucose-6-phosphate (G6P), 1.3 mM β-NADP^+, 3.3 mM MgCl2, and 0.4 U/mL glucose-6-phosphate dehydrogenase (G6PD)) at 37° C. The reaction was stopped at 0 and 30 minutes using cold acetonitrile containing carbamazepine as an internal standard at 20 ng/mL. After vortexing and centrifugation, the supernatant was analyzed with liquid chromatography with tandem mass spectrometry (LC-MS/MS). All microsomal assays were performed in duplicate.
After sample preparation, 0.1 mL acetonitrile containing 20 ng/mL internal standard was added to a 50 μL aliquot of each biological sample. After vortexing and centrifugation at 12,000 rpm for 10 minutes, 10 μL of the supernatant was analyzed with LC-MS/MS.
In the LC system, a reversed-phase C18 column (BEH C18, 2.1 mm×100 mm i.d., 1.7 μm; Waters, Ireland) was maintained at 4° C. The composition of the mobile phase was changed from 80% of 0.1% formic acid in water to 80% of 0.1% formic acid in acetonitrile for 3 minutes, and then switched to 80% of 0.1% formic acid in water for 3.1 minutes, and maintained at 0.5 at mL/min for 5 minutes. The analytes were monitored on an API5500 triple quadrupole mass spectrometer MS (AB Sciex, Foster City, CA) equipped with a turbo ion spray interface for electrospray ionization and operated in positive ion mode at 5.5 kV and 500° C. at 50 L/min of atomizing gas flow, 50 L/min of turbo ion-spray gas flow, 20 L/min of curtain gas flow, 5.5 kV of ring voltage and 5 Torr of collision gas (nitrogen) pressure. The mass transitions for NIC7, NIC7w and the internal standard were m/z 481.1→165.0 (collision energy, 45 eV), 453.1→165.0 (41.0 eV) and 236.9→194.0 (29 eV), respectively, in the multiple reaction monitoring mode.

[3] = system: NLRP3 signaling pathway (IL-1β, caspase 1); assay: Western blot of the NLRP3 signaling pathway; format: cell-based, human; details: 10 μM, PMA-differentiated THP-1, LPS/nigericin
Protocol: Cytoplasmic proteins were extracted using NE-PERTM Nuclear and Cytoplasmic Extraction Reagent (Thermo Fisher Scientific, Inc.), and the total-protein was measured using a Bicinchoninic (BCA) assay kit (Sigma-Aldrich Co.). The proteins were separated by SDS-PAGE and transferred to a membrane using a Mini-PROTEAN Tetra Cell and Mini Trans-Blot Electrophoretic Transfer Cell System (Bio-Rad Laboratories, Hercules, CA, USA). The membranes were blocked with skim milk (5%) for 1 hour, and immunoblotted with antibodies against NLRP3, IL-1β, mature IL-1β (Cell Signaling Technology Inc., Danvers, MA, USA), caspase 1 and β-actin (Santa Cruz Biotechnology Inc., Dallas, TX, USA) at 4° C. overnight. After washing with PBS supplemented with 0.1% of Tween 20, the membranes were treated with a peroxidase-conjugated anti-rabbit or anti-mouse IgG antibody (1:1,000) for 2 hours at room temperature. The SuperSignal West Pico ECL solution (Thermo Fisher Scientific, Inc.) was used to detect protein bands that were visualized on a ChemiDocm Touch Imaging System (Bio-Rad Laboratories).

CYP2C9 = molecular target: T1, CYP2C9 (Homo sapiens, UniProt P11712); assay: Cytochrome P450 inhibition; format: in vitro ADME; details: for CYP enzyme selectivity of inhibition: five P450 enzymes, 10 μM; for inhibition at 10 min, 10 µM: probe tolbutamide (4-hydroxylation), pooled human liver microsomes 0.25 mg/mL, tolbutamide, read-out: CYP inhibition (% at 10 μM) 2C9
T1 construct: pooled human liver microsomes were assayed at 0.25 mg/mL concentration; from tissue; host or cells: pooled human liver microsomes
T1 sequence (P11712 whole entry): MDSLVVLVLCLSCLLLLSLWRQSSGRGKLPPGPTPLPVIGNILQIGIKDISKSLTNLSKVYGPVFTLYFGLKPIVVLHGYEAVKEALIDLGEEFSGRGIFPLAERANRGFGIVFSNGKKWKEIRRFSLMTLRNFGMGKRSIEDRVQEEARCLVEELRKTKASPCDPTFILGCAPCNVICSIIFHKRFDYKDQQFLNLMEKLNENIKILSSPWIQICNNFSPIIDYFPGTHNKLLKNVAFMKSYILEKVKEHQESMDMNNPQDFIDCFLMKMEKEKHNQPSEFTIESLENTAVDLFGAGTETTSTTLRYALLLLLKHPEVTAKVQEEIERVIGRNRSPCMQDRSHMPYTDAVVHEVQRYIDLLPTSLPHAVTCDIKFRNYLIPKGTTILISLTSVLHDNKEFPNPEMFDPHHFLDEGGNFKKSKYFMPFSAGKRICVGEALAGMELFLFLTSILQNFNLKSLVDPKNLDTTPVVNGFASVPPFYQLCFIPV
Protocol: (§2) The inhibitory effects of NIC7 and NIC7w on the metabolism of the five major P450 probe substrates were evaluated using a previously reported method (S. Seino, Diabetologia 55, 2096-2108 (2012)) with minor modifications. A cocktail of substrates (phenacetin O-deethylase, tolbutamide 4-hydroxylase, mephenytoin 4-hydroxylase, dextromethorphan O-demethylase, and midazolam 1′-hydroxylase) was used for five major P450 enzymes, CYP1A2, CYP2C9, CYP2C19, CYP2D6, and CYP3A4, respectively. NIC7 and NIC7w were prepared at a concentration of 10 mM in DMSO and dissolved in methanol at a concentration of 1 mM. In all experiments, the final concentration of an organic solvent (methanol) for cocktail incubation was set at 1.0% (v/v). Both NIC7 and NIC7w were used at 10 μM, and pooled human liver microsomes were assayed at 0.25 mg/mL concentration. The substrate cocktail solution was incubated with the microsomes for 5 min at 37° C. The reaction was initiated by adding an NADPH-generating system (the same as described in Examples 1-5) at 37° C. and 1300 rpm. The reaction was stopped at 10 min by the addition of cold acetonitrile containing carbamazepine as an internal standard at 20 ng/mL. After vortexing and centrifugation, the supernatant was analyzed with LC-MS/MS. All microsomal incubations were performed in triplicate.

CYP2D6 = molecular target: T2, CYP2D6 (Homo sapiens, UniProt P10635); assay: Cytochrome P450 inhibition; format: in vitro ADME; details: probe dextromethorphan (O-demethylation), pooled human liver microsomes 0.25 mg/mL, read-out: CYP inhibition (% at 10 μM) 2D6
T2 construct: pooled human liver microsomes were assayed at 0.25 mg/mL concentration; from tissue; host or cells: pooled human liver microsomes
T2 sequence (P10635 whole entry): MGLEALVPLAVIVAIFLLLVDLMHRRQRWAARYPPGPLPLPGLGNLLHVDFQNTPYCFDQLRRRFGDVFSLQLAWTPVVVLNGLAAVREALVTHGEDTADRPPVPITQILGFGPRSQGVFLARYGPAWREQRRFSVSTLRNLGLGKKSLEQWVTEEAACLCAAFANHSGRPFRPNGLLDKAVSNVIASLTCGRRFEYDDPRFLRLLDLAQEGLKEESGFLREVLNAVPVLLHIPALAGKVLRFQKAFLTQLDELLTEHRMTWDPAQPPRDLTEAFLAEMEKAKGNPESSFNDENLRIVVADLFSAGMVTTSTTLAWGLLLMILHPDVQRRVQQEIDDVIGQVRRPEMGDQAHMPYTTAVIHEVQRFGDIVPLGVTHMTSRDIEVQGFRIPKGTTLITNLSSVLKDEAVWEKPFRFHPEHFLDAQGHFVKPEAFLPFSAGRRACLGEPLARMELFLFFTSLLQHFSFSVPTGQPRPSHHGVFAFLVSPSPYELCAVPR
Protocol: as §2

CYP1A2 = molecular target: T3, CYP1A2 (Homo sapiens, UniProt P05177); assay: Cytochrome P450 inhibition; format: in vitro ADME; details: probe phenacetin (O-deethylation), pooled human liver microsomes 0.25 mg/mL, read-out: CYP inhibition (% at 10 μM) 1A2
T3 construct: pooled human liver microsomes were assayed at 0.25 mg/mL concentration; from tissue; host or cells: pooled human liver microsomes
T3 sequence (P05177 1-516): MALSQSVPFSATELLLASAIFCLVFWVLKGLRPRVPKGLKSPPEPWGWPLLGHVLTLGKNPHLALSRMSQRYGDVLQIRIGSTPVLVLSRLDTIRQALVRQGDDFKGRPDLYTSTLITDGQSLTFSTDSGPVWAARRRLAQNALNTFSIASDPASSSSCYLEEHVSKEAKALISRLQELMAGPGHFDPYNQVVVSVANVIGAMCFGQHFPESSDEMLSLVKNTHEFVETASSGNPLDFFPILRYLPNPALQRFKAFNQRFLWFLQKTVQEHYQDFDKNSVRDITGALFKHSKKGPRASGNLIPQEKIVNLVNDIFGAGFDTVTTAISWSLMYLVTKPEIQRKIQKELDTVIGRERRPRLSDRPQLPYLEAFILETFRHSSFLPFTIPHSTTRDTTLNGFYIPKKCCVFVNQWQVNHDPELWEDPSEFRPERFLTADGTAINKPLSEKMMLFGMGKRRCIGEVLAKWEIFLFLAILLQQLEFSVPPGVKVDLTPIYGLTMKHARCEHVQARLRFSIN
Protocol: as §2

CYP2C19 = molecular target: T4, CYP2C19 (Homo sapiens, UniProt P33261); assay: Cytochrome P450 inhibition; format: in vitro ADME; details: probe mephenytoin (4-hydroxylation), pooled human liver microsomes 0.25 mg/mL, read-out: CYP inhibition (% at 10 μM) 2C19
T4 construct: pooled human liver microsomes were assayed at 0.25 mg/mL concentration; from tissue; host or cells: pooled human liver microsomes
T4 sequence (P33261 whole entry): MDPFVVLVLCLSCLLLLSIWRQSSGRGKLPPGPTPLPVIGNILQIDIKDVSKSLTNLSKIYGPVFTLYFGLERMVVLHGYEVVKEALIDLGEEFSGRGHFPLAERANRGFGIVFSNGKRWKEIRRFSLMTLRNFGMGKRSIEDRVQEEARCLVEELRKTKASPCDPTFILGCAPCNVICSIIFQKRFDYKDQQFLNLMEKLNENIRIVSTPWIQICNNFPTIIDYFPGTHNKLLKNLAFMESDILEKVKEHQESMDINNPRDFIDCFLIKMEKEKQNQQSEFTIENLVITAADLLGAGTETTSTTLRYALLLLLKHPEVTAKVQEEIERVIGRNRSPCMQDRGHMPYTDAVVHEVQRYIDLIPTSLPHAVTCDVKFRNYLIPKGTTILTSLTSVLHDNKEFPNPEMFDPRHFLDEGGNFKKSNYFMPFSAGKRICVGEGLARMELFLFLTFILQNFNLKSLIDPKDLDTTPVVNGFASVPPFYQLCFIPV
Protocol: as §2

CYP3A4 = molecular target: T5, CYP3A4 (Homo sapiens, UniProt P08684); assay: Cytochrome P450 inhibition; format: in vitro ADME; details: probe midazolam (1′-hydroxylation), pooled human liver microsomes 0.25 mg/mL, read-out: CYP inhibition (% at 10 μM) 3A4
T5 construct: pooled human liver microsomes were assayed at 0.25 mg/mL concentration; from tissue; host or cells: pooled human liver microsomes
T5 sequence (P08684 whole entry): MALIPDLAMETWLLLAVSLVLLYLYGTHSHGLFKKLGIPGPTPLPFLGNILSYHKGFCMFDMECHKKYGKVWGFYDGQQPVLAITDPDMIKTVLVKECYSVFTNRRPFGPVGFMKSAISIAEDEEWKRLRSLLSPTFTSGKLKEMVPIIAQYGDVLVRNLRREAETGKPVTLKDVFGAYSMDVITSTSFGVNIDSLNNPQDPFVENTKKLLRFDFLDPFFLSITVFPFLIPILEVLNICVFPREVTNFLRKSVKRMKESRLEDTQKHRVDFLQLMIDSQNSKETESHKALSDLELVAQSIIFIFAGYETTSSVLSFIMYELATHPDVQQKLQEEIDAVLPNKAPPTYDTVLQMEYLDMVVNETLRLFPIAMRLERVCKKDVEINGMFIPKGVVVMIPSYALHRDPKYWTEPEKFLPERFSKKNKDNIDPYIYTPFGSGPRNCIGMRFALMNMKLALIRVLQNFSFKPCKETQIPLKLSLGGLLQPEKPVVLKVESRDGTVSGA
Protocol: as §2

NLRP3 [4] = molecular target: T6, NLRP3 (Homo sapiens, UniProt Q96P20); assay: Inhibition of NLRP3 by IL-1β secretion level (ELISA); format: cell-based; details: PMA-differentiated THP-1, LPS (10 ng/mL) 4 hours, compound 1 hour, nigericin (10 μM) 1 hour
T6 construct: THP-1 cells (10^5/well) were differentiated with PMA (80 nM, 48 hours) in a 96-well plate; endogenous in cells; host or cells: PMA-differentiated, LPS-primed THP-1 cells
T6 sequence (Q96P20 whole entry): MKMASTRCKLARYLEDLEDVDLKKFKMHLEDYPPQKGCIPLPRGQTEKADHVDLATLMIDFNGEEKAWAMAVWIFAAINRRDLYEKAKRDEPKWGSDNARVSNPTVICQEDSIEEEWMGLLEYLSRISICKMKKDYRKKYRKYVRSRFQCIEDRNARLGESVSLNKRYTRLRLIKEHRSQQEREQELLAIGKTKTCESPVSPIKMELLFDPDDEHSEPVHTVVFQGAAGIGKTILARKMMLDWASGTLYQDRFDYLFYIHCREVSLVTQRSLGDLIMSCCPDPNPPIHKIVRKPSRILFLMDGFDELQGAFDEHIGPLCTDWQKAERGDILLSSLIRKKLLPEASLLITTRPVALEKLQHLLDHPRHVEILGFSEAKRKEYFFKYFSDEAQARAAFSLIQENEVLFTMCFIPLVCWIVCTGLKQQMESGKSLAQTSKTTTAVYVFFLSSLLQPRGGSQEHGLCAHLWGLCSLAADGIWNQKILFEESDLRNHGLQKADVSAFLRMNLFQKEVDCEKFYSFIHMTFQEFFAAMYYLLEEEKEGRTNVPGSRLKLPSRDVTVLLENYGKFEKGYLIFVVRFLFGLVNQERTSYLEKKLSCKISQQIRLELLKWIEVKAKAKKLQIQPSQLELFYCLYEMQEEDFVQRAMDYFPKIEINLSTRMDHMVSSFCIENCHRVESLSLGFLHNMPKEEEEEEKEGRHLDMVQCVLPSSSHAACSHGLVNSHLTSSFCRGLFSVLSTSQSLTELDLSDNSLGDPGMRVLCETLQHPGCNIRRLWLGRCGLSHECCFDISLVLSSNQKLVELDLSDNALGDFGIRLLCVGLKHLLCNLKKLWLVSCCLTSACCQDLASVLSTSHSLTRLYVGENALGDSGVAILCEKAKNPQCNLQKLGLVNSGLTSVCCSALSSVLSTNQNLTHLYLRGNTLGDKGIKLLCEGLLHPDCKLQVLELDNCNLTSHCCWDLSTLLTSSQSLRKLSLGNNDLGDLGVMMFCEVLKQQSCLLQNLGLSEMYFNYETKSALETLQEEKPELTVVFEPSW
Protocol: THP-1 cells (10^5/well) were differentiated with PMA (80 nM, 48 hours) in a 96-well plate (BD Biosciences). The differentiated macrophages were primed with LPS (10 ng/mL) for 4 hours. Thereafter, the cells were treated with each compound for 1 hour in a serum-free medium, followed by activation of NLRP3 by nigericin for an additional 1 hour. The supernatant was collected and the inhibition of human IL-1β secretion was analyzed using the Human IL-1β Uncoated ELISA Kit (Thermo Fisher Scientific, Inc.). A microplate spectrophotometer system (Molecular Devices) was employed to read absorbance in the plate.

[5] = system: AD model mice (Aβ1-42 injected); assay: Novel object recognition test in AD model; format: in vivo, C57BL/6 mice; details: vs vehicle-treated or untreated mice
Protocol: as §1
A novel object recognition test was performed in an open field box containing two identical objects. Animals were first familiarized with these identical objects for 2 minutes, and then one of the objects was replaced with a novel object, followed by reading for 5 minutes. The time spent with an identical object (tA) and the time spent with a novel object (tB) were calculated, and the recognition index ratio was calculated via the formula (tB/(tA+tB))×100.

[6] = NIC7 100 nmol/g intraperitoneally
[7] = donepezil 1 mg/kg intraperitoneally

O=[N+]([O-])/C=C/c1ccc2c(c1)OCO2 [MNS]
IC50 (NLRP3 [1]): ~2000 nM

CC1CC(=O)c2s/c(=N\C3CCCCC3)oc2C1 (centres unmarked) [BOT-4-one]
IC50 (NLRP3, NLRC4): 590 to 1280 nM

CC(=O)c1cccc(NC(=O)Nc2ccc3sc(NS(=O)(=O)c4ccc(C)cc4)nc3c2)c1 [NIC7, N-(5-(3-(3-acetylphenyl)ureido)benzo[d]thiazol-2-yl)-4-methylbenzenesulfonamide]
Y-maze test, spatial working memory [2, 6]: spent more time in the novel arm | body weight (Body weight in AD model): significantly increased | metabolic stability versus positive control compound (Microsomal stability): better half-life and stability than a positive control compound | Microsomal stability (% at 30 min) (Microsomal stability): Human: 19.7% | inhibition of IL-1β and caspase 1 (Western blot) [3]: inhibition | CYP enzyme selectivity of inhibition (CYP2C9): acted mainly on CYP2C9 enzyme and hardly acted on other types of CYP enzymes | inhibition at 10 min, 10 µM (CYP2C9): 34.2% | inhibition at 10 min, 10 µM (CYP2D6): 9.8% | inhibition at 10 min, 10 µM (CYP1A2): < 1% | inhibition at 10 min, 10 µM (CYP2C19): < 1% | inhibition at 10 min, 10 µM (CYP3A4): < 1% | inhibition of IL-1β secretion caused by NLRP3 (NLRP3 [4]): highest potency; also recorded: significant inhibition | recognition index rate (novel object recognition test) [5, 6]: better

NBC6
IC50 (NLRP3 [1]): ~574 nM

COc1cc2c(cc1OC)C(=O)C(CC1CCN(Cc3ccccc3)CC1)C2 (centres unmarked) [donepezil, reference compound]
Y-maze test, spatial working memory [2, 7]: spent more time in the novel arm | recognition index rate (novel object recognition test) [5, 7]: better

O=C(O)c1ccc(/C=C2/SC(=S)N(Cc3cccc(C(F)(F)F)c3)C2=O)cc1 [CY-09]
IC50 (NLRP3 [1]): ~5000 nM

Cc1ccc(S(=O)(=O)Nc2nc3cc(NC(=O)NCc4ccccc4)ccc3s2)cc1 [NIC7w, N-(5-(3-benzylureido)benzo[d]thiazol-2-yl)-4-methylbenzenesulfonamide]
metabolic stability versus positive control compound (Microsomal stability): better half-life and stability than a positive control compound | Microsomal stability (% at 30 min) (Microsomal stability): Human: 49.5% | increase of amount of drug remaining after 30 minutes of metabolism compared to NIC7 (Microsomal stability; human liver microsomes): 29.8% | inhibition of IL-1β and caspase 1 (Western blot) [3]: inhibition | CYP enzyme selectivity of inhibition (CYP2C9): acted mainly on CYP2C9 enzyme and hardly acted on other types of CYP enzymes | inhibition at 10 min, 10 µM (CYP2C9): 39.4% | inhibition at 10 min, 10 µM (CYP2D6): 9.1% | inhibition at 10 min, 10 µM (CYP1A2): < 1% | inhibition at 10 min, 10 µM (CYP2C19): 15.4% | inhibition at 10 min, 10 µM (CYP3A4): < 1% | inhibition of IL-1β secretion caused by NLRP3 (NLRP3 [4]): most potent inhibition; also recorded: in a dose-dependent manner, more strongly and significantly than NIC7

Cc1ccc(S(=O)(=O)/C=C/C#N)cc1 [Bay 11-7082]
IC50 (NLRP3, NLRC4): ~5000 nM

CS(=O)(=O)CCC#N [OLT1177]
IC50 (NLRP3 [1]): ~1000 nM
